Assay results: the NIST ThermoML archive (doi:10.1016/j.jct.2008.01.007)

Test: xn = mol fraction of the nth substance listed
Settings: 101 kPa, Liquid

OCCN1CCOCC1 [4-morpholineethanol] + O
Settings | mass density, 293.15 K [kg/m3] | mass density, 303.15 K [kg/m3] | mass density, 313.15 K [kg/m3] | mass density, 323.15 K [kg/m3] | mass density, 333.15 K [kg/m3] | viscosity, 293.15 K [mPa·s] | viscosity, 303.15 K [mPa·s] | viscosity, 313.15 K [mPa·s] | viscosity, 323.15 K [mPa·s] | viscosity, 333.15 K [mPa·s]
x1 = 0.0628 | 1041.44 | 1033.11 | 1024.47 | 1017.66 | 1012.27 | 14.46 | 9.721 | 8.148 | 6.767 | 4.413
x1 = 0.1126 | 1061.42 | 1052.36 | 1043.65 | 1035.57 | 1029.49 | 22.98 | 18.02 | 13.55 | 11.37 | 9.233
x1 = 0.1985 | 1078.87 | 1069.04 | 1060.34 | 1052.34 | 1044.12 | 33.29 | 27.47 | 22.61 | 17.84 | 13.91
x1 = 0.2466 | 1083.81 | 1073.73 | 1065.05 | 1057.12 | 1048.47 | – | – | – | – | –
x1 = 0.2887 | 1086.11 | 1075.86 | 1067.22 | 1059.03 | 1050.37 | 39.28 | 33.52 | 28.26 | 23.09 | 17.82
x1 = 0.3459 | 1087.54 | 1077.13 | 1068.55 | 1060.61 | 1051.89 | 41.75 | 35.73 | 30.86 | 25.45 | 19.93
x1 = 0.4127 | 1087.67 | 1077.14 | 1068.64 | 1061.07 | 1052.63 | 43.23 | 37.33 | 31.64 | 25.94 | 20.12
x1 = 0.4852 | 1086.69 | 1076.07 | 1067.65 | 1060.28 | 1052.39 | 44.02 | 37.36 | 31.41 | 25.4 | 19.72
x1 = 0.5438 | 1085.22 | 1074.56 | 1066.2 | 1058.66 | 1051.46 | – | – | – | – | –
x1 = 0.5842 | 1084.37 | 1073.69 | 1065.37 | 1057.87 | 1050.71 | 43.33 | 36.22 | 29.62 | 23.17 | 18.58
x1 = 0.6438 | 1082.81 | 1072.11 | 1063.85 | 1056.41 | 1049.64 | 42.3 | 34.92 | 28.05 | 21.34 | 16.15
x1 = 0.6878 | 1081.6 | 1070.89 | 1062.67 | 1055.27 | 1048.84 | – | – | – | – | –
x1 = 0.7439 | 1080.31 | 1069.59 | 1061.41 | 1054.22 | 1047.82 | 39.78 | 32.9 | 25.58 | 19.58 | 14.06
x1 = 0.8238 | 1078.68 | 1068.19 | 1060.06 | 1053.44 | 1047.09 | 36.28 | 30.25 | 23.38 | 18.01 | 12.67
x1 = 0.8846 | 1077.69 | 1067.27 | 1059.5 | 1052.95 | 1046.7 | 33.61 | 27.11 | 22.16 | 16.98 | 11.26
x1 = 0.9486 | 1077.17 | 1066.94 | 1059.41 | 1052.79 | 1046.54 | – | – | – | – | –
x1 = 1 | 1076.58 | 1066.51 | 1059.19 | 1052.64 | 1046.43 | 26.58 | 21.99 | 17.32 | 12.86 | 8.284
